# Data: patent US20210323995A1, “ISOLITHOCHOLIC ACID OR ISOALLOLITHOCHOLIC ACID AND DEUTERATED DERIVATIVES THEREOF FOR PREVENTING AND TREATING CLOSTRIDIUM DIFFICILE-ASSOCIATED DISEASES” (PHENEX PHARMACEUTICALS AG, priority 2018, published 2021)
# Where two headings read alike, the source gives them in different places.
# What was measured:
# [1] = system: Clostridium difficile (Clostridioides difficile), Mouse Strain VPI 10463 (ATCC 43255); test: MIC on Clostridium difficile mouse strain VPI 10463; type: cell-based; conditions: ATCC43255, 48 hours, presence/absence of growth, tested 0.015-250 μM
# Experimental: Determination of Minimal Inhibitory Concentrations (MICs) of Bile Acid Derivatives on Clostridium difficile (Clostridioides difficile), Mouse Strain VPI 10463 (ATCC 43255)
# Concentrations (0.015-250 μM) of test compounds are prepared by serial two-fold dilutions in pre-reduced brain heart infusion (BHI) broth. To each well containing test article, approximately 5×10^5 CFU of bacteria are added and incubated for 48 hours in an anaerobic chamber at 37° C. Following incubation, the MIC of each test article is determined by presence/absence of bacterial growth in each well.
# [2] = system: C. diff. spore germination; conditions: reported in WO2010/062369, Table 3, cited from earlier work
# [3] = system: C. diff. strain VPI 10463 (ATCC-43255) infection; test: Recurrence model mouse of C. diff. infection; type: in vivo, C57BL/6 female mice; conditions: for survival of the animals: comparison Example 3 against Example 1 (FIG. 3); for Survived / Total Deaths: Day 5 to Day 11, n 10
# Experimental: The efficacy of compounds in suppressing recurrent C. diff. infection was assessed in C57BL/6 female mice. Mice were made vulnerable to C. diff. infection by administration of a cocktail of antibiotics (1% glucose, kanamycin (0.5 mg/mL), gentamicin (44 μg/mL), colistin (1062.5 U/mL), metronidazole (269 μg/mL), ciprofloxacin (156 μg/mL), ampicillin (100 μg/mL) and vancomycin (56 μg/mL)) in drinking water for a period of 9 days. 3 days prior to C. diff. infection, mice received a single dose of clindamycin (10 mg/kg) in a volume of 0.5 mL by oral gavage. After this antibiotic pre-treatment, mice received a challenge of approximately 4.5 log 10 viable spores of strain VPI 10463 (ATCC-43255) administered by oral gavage (day 0). After that mice received 50 mg/kg vancomycin from day 0 until day 4. Test articles (bile acid) and placebo were administered via oral gavage bid from day 5 through day 11. Efficacy of test articles was assessed by enumeration of survival of test animals over 15 days following C. diff, challenge and by comparison of mortality, disease severity scores and assessment of body weight against placebo treatment.
# [4] = system: Clostridium difficile (Clostridioides difficile), Human Strain R20291, Ribotype RT027; test: MIC on Clostridium difficile human strain R20291, ribotype RT027; type: cell-based; conditions: 16 h incubation, OD600
# Experimental: Determination of Minimal Inhibitory Concentrations (MICs) of Bile Acid Derivatives on Clostridium difficile (Clostridioides difficile), Human Strain R20291, Ribotype RT027, Reference DSMZ (DSM-27147)
# All bacterial culturing steps and MIC experiments were performed under anoxic conditions (95% N2, 5% H2) and 37° C. in an incubator model 2002 that was placed in a Type B vinyl anaerobic chamber, both from Coy Laboratories Products. The strains were maintained as frozen stock cultures in Brain-Heart Infusion broth supplemented with […] and 1% (w/v) L-cysteine (BHIS) containing 40% (v/v) glycerine (Carl Roth GmbH, Cat. #3783.1) at −80° C. Brain-heart infusion broth (Sigma Aldrich, Cat. #53286) with the addition of with 5 g/L yeast extract (Carl Roth GmbH, Cat. #2363.5) was prepared according to the manufacturer's instructions. After heat sterilization, 1 g L-cysteine (Sigma Aldrich, Cat. #C7352) was added that was dissolved in 10 mL of distilled water (H2Odd) and filter sterilized. Medium was placed over night into the anaerobic chamber for degassing. For the MIC-assay cryo-preserved strains were streaked out on BBL™ Columbia CNA Agar with 5% Sheep Blood (BD™, Cat. #221352) and grown for 2-3 d. These plates were kept at rt in the anaerobic chamber for up to two weeks for starting fresh liquid cultures. […]
# [5] = system: C. diff. strain VPI 10463 (ATCC-43255) infection; test: Murine model of Clostridium difficile-associated disease: acute model; type: in vivo, C57BL6 female mice
# Experimental: Efficacy Evaluation in a Murine Model of Clostridium difficile-Associated Disease: Acute Model
# The efficacy of compounds in suppressing C. diff infection was assessed in C57BL6 female mice. Mice were made vulnerable to C. diff. infection by administration of a cocktail of antibiotics (1% glucose, kanamycin (0.5 mg/mL), gentamicin (44 μg/mL), colistin (1062.5 U/mL), metronidazole (269 μg/mL), ciprofloxacin (156 μg/mL), ampicillin (100 μg/mL) and vancomycin (56 μg/mL)) in drinking water for a period of 9 days. 3 days prior to C. diff. infection, mice received a single dose of clindamycin (10 mg/kg) in a volume of 0.5 mL by oral gavage. After this antibiotic pre-treatment, mice received a challenge of approximately 4.5 log 10 viable spores of strain VPI 10463 (ATCC-43255) administered by oral gavage. Test compounds (bile acid) and placebo were administered in the chow or via oral gavage bid from day −2 through day 4 or 10 or 11. Gavage medium was aqueous, PBS-buffered 0.5% hydroxypropyl methylcellulose (HPMC) suspension. Efficacy of test articles was assessed by enumeration of survival of test animals over 12/15 days following C. diff, challenge and by comparison of mortality, disease severity scores and assessment of body weight against placebo treatment.
# Results studies 1, 2 and 3 (using compound Example 1, dosed with 100 mg/kg daily dose via food or via gavage bid): […]
# [6] = system: C. diff. strain BI1 infection; test: Recurrence model hamster of C. diff. infection; type: in vivo, male Syrian hamster; conditions: for survivors: repeated experiment (FIG. 5), 100% of vehicle animals died within 13 days
# Experimental: The efficacy of compounds in suppressing recurrent C. diff infection was assessed in male Syrian hamster. Hamster were made vulnerable to C. diff. infection by administration 1 day prior to C. diff, infection of a single dose of clindamycin (30 mg/kg) by oral gavage. After this antibiotic pre-treatment, mice received a challenge of approximately 1560 viable spores of strain BI1 administered by oral gavage (day 0). After that hamster received 10 mg/kg vancomycin from day 0 until day 5. Test articles (bile acid) and placebo were administered via oral gavage bid from day 6 through day 15. Efficacy of test articles was assessed by enumeration of survival of test animals over 20 days following C. diff. challenge and by comparison of mortality, disease severity scores and assessment of body weight against placebo treatment.
# [7] = target: T1, vitamin D receptor (VDR; NR1I1) (Homo sapiens, UniProt P11473); test: One-hybrid reporter assay for the vitamin D receptor; type: cell-based; conditions: result in words
# T1 construct: expressed in transfected cells; host or cells: HEK293
# T1 sequence (P11473 88-427): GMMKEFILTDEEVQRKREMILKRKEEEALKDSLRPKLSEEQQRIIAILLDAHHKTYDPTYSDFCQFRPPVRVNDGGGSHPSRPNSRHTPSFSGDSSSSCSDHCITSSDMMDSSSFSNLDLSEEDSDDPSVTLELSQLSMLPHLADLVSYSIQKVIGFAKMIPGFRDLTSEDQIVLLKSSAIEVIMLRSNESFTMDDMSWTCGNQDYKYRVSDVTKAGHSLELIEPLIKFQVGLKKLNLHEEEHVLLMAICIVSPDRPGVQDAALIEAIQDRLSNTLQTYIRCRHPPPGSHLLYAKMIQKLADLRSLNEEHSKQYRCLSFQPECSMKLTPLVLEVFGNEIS
# Experimental: The vitamin D receptor (VDR; NR1I1) reporter assay was performed by transient co-transfection of HEK293 cells with pCMV-BD (Stratagene #211342) containing the GAL4 DNA-binding domain fused with the ligand binding domain of VDR (Genbank accession no. NP_000378, aa 88-427), pFR-Luc reporter and pRL-CMV reporter (Promega #E2261) using PEI solution (Sigma Aldrich cat #40872-7) in a 96-well plate. Cells were incubated for 4-6 hours, and then cultured in MEM supplemented with 8.7% FCS, Glutamax, NEAA, sodium pyruvate and Pen/Strep in the presence of test compounds for 16-20 hours. Cells were incubated for 4 to 6 hours in 30 μL/well transfection mix in OPTIMEM and then cultured for further 16 to 20 hours after addition of 120 μL MEM supplemented with 8.7% FCS, Glutamax, NEAA, sodium pyruvate and Pen/Strep in the presence of test compounds. Medium was removed and cells were lysed with 1× Passive Lysis Buffer (Promega). Firefly luciferase buffer was then added and firefly luciferase luminescence was read on BMG LUMIstar OMEGA luminescence plate reader. One second later, renilla luciferase buffer was added and renilla luciferase luminescence was read to evaluate cell viability and to be able to normalize for well to well differences in transfection efficiency.
# [8] = ALT plasma concentration of mice after 5 days administration; type: in vivo; conditions: 500 mg/kg for 5 days, mice (FIG. 1a, 1b); result in words
# [9] = Study 1, 0.1% in chow, Day −2 to Day 10
# [10] = Study 2 (so in the source), 0.1% in chow, Day −2 to Day 10
# [11] = Study 2, as gavage, Day 5 to Day 11
# [12] = Study 1, 0.1% in chow, Day −2 to Day 10, n 10
# [13] = Study 2, 0.1% in chow, Day −2 to Day 10
# [14] = Study 2, 0.1% in chow, Day −2 to Day 10, n 10
# [15] = Study 3, 0.1% in chow, Day −2 to Day 4
# [16] = Study 3, 0.1% in chow, Day −2 to Day 4, n 10
# [17] = Study 3, 0.1% in chow, Day −2 to Day 10
# [18] = Study 3, as gavage, Day −2 to Day 4
# [19] = Study 3, as gavage, Day −2 to Day 4, n 10
# [20] = Study 3, as gavage, Day −2 to Day 10
smiles,measurement,setting,value
"[2H][C@]1(O)CC[C@@]2(C)[C@H](CC[C@@H]3[C@@H]2CC[C@]2(C)[C@@H]([C@H](C)CCC(=O)O)CC[C@@H]32)C1 [Example 4, 3-d1-Isolithocholic Acid]",MIC,[1],15.6 µM
CC(=O)O[C@@H]1CC[C@@]2(C)[C@H](CC[C@@H]3[C@@H]2CC[C@]2(C)[C@@H]([C@H](C)CCC(=O)O)CC[C@@H]32)C1 [5β-cholanic acid 3α-ol acetate],effect on C. diff. spore germination (inhibition of germination),[2],no effect
same,effect on C. diff. spore germination (inhibition of germination),[2]; listed as 3-acetyl-LCA,not present
"C[C@H](CCC(=O)O)[C@H]1CC[C@H]2[C@@H]3CC[C@@H]4C[C@@H](O)CC[C@]4(C)[C@H]3CC[C@]12C [Example 1, Isolithocholic Acid]",MIC,[1],15.6 µM
same,survival of the animals,[3]; 100 mg/kg,30%
same,"efficacy (surviving rate), head-to-head comparison of iso-LCA and LCA","[3]; FIG. 2, result in words",higher surviving rate
same,% Death,"[3]; Study 1, 0.1% in chow, Day 5 to Day 11",0%
same,Survived,"[3]; Study 1, 0.1% in chow",10
same,Total Deaths,"[3]; Study 1, 0.1% in chow",0
same,Body weight day 12,[3]; [9],18.4
same,% mouse days with total clinical score >0,[3]; [10],30%
same,% mouse days with total clinical score >2,[3]; [10],1%
same,% Death,[3]; [11],0%
same,% mouse days with total clinical score >0,[3]; [11],56%
same,% mouse days with total clinical score >2,[3]; [11],0%
same,Body weight day 12,[3]; [11],16.9 g
same,Survived,"[3]; Study 2, as gavage",10
same,Total Deaths,"[3]; Study 2, as gavage",0
same,animals in the treatment groups died,"[3]; vehicle group 70 to 80% died, result in words",none
same,MIC,[4],16 µM
same,% Death,[5]; [9],0%
same,% mouse days with total clinical score >0,[5]; [9],30%
same,% mouse days with total clinical score >2,[5]; [9],0%
same,Body weight day 12,[5]; [9],19.0
same,Survived,[5]; [12],10
same,Total Deaths,[5]; [12],0
same,% Death,[5]; [13],0%
same,% mouse days with total clinical score >0,[5]; [13],65%
same,% mouse days with total clinical score >2,[5]; [13],0%
same,Body weight day 12,[5]; [13],20.0
same,Survived,[5]; [14],10
same,Total Deaths,[5]; [14],0
same,% Death,[5]; [15],20%
same,Body weight day 12,[5]; [15],18.1
same,Survived,[5]; [16],8
same,Total Deaths,[5]; [16],2
same,% mouse days with total clinical score >0,[5]; [17],72%
same,% mouse days with total clinical score >2,[5]; [17],15%
same,% Death,[5]; [18],0%
same,Body weight day 12,[5]; [18],15.5 g
same,Survived,[5]; [19],10
same,Total Deaths,[5]; [19],0
same,% mouse days with total clinical score >0,[5]; [20],30%
same,% mouse days with total clinical score >2,[5]; [20],2%
same,animals in the treatment groups survived,[5]; first study (vehicle group 40% died),100%
same,animals in the treatment groups survived,[5]; second study (vehicle group 30% died),100%
same,animals in the treatment groups survived,[5]; third study (vehicle group 80% died),80%
same,survivors,[6]; 30 mg/kg,20%
same,survivors,[6]; 100 mg/kg,40%
same,animals protected,[6]; dose-dependent manner (FIG. 5),20-40%
same,animals in the treatment group died,"[6]; first experiment (FIG. 4), vehicle group 20% died, result in words",none
same,spores in caecum and colon of surviving animals,[6]; result in words,removed all spores from caecum and colon
same,Vitamin D agonism,[7],devoid of this Vitamin D agonism
same,ALT-elevation (ALT plasma concentration),[8],less pronounced
"[2H]C1([2H])C[C@@]2(C)[C@H](CC[C@@H]3[C@@H]2CC[C@]2(C)[C@@H]([C@H](C)CCC(=O)O)CC[C@@H]32)C([2H])([2H])C1([2H])O (stereo partly shown) [Example 3, 2,2,3,4,4-d5-Isolithocholic Acid]",MIC,[1],7.8 to 15.6 µM
same,survival of the animals,[3]; 30 mg/kg,60%
"C[C@H](CCC(=O)O)[C@H]1CC[C@H]2[C@@H]3CC[C@H]4C[C@@H](O)CC[C@]4(C)[C@H]3CC[C@]12C [Example 5, 3β-Hydroxy-5α-cholan-24-oic Acid]",MIC,[1],3.9 µM
same,MIC,[4],8 µM
"C[C@H](CCC(=O)O)[C@H]1CC[C@H]2[C@@H]3CC[C@@H]4C[C@@H](O)CC[C@]4(C)[C@H]3C[C@H](O)[C@]12C [iso-DCA, reference compound]",MIC,[1],> 250 µM
"[2H]C1([2H])C[C@@]2(C)[C@H](CC[C@@H]3[C@@H]2CC[C@]2(C)[C@@H]([C@H](C)CCC(=O)O)CC[C@@H]32)C([2H])([2H])[C@H]1O [Example 2, 2,2,4,4-d4-Isolithocholic Acid]",MIC,[1],7.8 to 15.6 µM
"C[C@H](CCC(=O)O)[C@H]1CC[C@H]2[C@@H]3CC[C@@H]4C[C@H](O)CC[C@]4(C)[C@H]3CC[C@]12C [LCA, lithocholic acid]",ALT-elevation (ALT plasma concentration),[8],confirm this described liability of ALT-elevation
